This is an account of results in paper PMC6155600, “Design, Synthesis and Cellular Characterization of a Dual Inhibitor of 5-Lipoxygenase and Soluble Epoxide Hydrolase” (Molecules : A Journal of Synthetic Chemistry and Natural …, 2016).

Assay [1] concerns the target T1, soluble epoxide hydrolase (sEH) (Homo sapiens, UniProt P34913).
T1 construct: gene EPHX2
T1 sequence (P34913 1-555): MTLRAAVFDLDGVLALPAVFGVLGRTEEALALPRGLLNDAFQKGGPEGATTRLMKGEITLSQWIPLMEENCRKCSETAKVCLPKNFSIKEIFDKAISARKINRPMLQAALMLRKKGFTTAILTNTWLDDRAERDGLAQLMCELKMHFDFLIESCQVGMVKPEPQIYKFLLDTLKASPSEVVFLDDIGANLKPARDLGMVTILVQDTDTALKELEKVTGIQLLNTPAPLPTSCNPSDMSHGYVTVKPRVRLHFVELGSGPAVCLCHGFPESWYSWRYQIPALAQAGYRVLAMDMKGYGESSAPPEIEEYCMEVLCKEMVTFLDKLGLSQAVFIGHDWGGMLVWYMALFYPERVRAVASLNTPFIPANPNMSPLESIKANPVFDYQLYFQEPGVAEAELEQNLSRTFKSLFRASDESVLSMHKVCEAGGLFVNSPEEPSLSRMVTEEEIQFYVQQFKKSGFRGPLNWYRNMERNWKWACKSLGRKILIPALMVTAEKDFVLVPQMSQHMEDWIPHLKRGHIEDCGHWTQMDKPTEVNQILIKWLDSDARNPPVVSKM
Kind of assay: fluorescence-based enzyme activity assay with recombinant human sEH (PHOME substrate). The class given is biochemical.

The next assay has as its target T2, 5-lipoxygenase (5-LO) (Homo sapiens, UniProt P09917).
T2 construct: gene ALOX5
T2 sequence (P09917 1-674): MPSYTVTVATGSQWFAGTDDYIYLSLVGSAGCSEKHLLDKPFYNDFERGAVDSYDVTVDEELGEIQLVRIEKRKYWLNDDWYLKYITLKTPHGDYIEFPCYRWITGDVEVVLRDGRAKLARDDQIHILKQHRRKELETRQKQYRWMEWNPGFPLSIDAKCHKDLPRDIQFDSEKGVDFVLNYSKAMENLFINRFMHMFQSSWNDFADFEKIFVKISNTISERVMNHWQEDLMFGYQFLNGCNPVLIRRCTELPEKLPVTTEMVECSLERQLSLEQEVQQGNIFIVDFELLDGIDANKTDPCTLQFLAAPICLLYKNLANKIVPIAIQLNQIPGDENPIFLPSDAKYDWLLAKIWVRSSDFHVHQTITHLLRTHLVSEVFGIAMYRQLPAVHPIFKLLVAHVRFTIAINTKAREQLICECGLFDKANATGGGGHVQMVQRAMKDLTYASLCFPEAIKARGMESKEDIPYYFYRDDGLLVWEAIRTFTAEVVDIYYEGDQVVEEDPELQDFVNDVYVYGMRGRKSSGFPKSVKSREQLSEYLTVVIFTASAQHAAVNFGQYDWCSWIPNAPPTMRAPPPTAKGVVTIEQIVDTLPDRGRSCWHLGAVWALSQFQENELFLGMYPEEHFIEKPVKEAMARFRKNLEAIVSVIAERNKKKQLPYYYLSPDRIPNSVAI
Put plainly: purified recombinant 5-LO activity assay, arachidonic acid substrate, HPLC product analysis. The class given is biochemical.

`COc1ccc(CN(O)C(N)=O)cc1OCCCNC(=O)Nc1ccc(OC(F)(F)F)cc1` [compound 5, 1-(3-{5-(Hydroxyureido)methyl-2-methoxyphenoxy}propyl)-3-[4-(trifluoromethoxy)phenyl]urea]: the half-maximal inhibitory concentration (IC50) was 29 nM in assay [1] and 1300 nM on 5-lipoxygenase (5-LO).
